# Like-named read-outs stand apart in the source and are kept apart here.
# How the values were obtained:
# [1] = target: T1, HRP (Armoracia rusticana, UniProt P00433); test: ROS-Glo H2O2 assay with HRP; type: biochemical, horseradish; conditions: for fold change in H2O2 decomposition by HRP: 30-min window, Fig. 2b
# T1 sequence (P00433 31-353): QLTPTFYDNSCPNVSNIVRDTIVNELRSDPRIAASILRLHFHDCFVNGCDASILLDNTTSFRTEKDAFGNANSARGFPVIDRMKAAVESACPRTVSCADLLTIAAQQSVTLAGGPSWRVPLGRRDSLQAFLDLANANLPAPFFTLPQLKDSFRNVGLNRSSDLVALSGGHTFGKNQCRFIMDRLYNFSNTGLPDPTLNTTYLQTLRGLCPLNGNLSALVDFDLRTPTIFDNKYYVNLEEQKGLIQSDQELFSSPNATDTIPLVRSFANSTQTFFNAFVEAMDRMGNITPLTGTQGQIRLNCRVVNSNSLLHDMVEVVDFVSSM
# Description: Hb (Sigma‒Aldrich, H7379), H2O2 (Sigma‒Aldrich, H1009), and Amplex Red reagents (Invitrogen, A12222) were obtained for the study. A 4 μM H2O2 solution was prepared in 50 mM sodium phosphate buffer (pH 7.2). Then, 49 μl of this mixture was mixed with 1 μl of the test compound in DMSO or distilled water. The mixture was combined with an assay mixture of Amplex Red reagent (20 mM stock to 0.1 mM) and HRP (200 U/ml stock to 0.2 U/ml) and added to the wells at 50 μl/well. After a 60-min incubation at 37 °C, resorufin production was quantified via a microplate fluorescence reader (SpectraMax iD5, Molecular Devices) at ex/em = 535/580 nm. […] For the ROS-Glo assay, the H2O2 substrate solution and ROS-Glo detection solution were prepared according to the manufacturer’s instructions. 10 μM H2O2 and drugs were prepared as in the Amplex Red assay, with HRP, Hb, CAT, or GPx added as needed. The mixture was added to the wells at 100 μl/well and incubated for 60 min at 37 °C. H2O2 substrate solution was added, and the mixture was incubated at room temperature for 30 min. After the H2O2 substrate solution was added and incubated at room temperature for 30 min, the ROS-Glo detection solution was added, and the mixture was incubated for 15 min. Luminescence was measured via iD5 microplate readers. […] The U/ml was calculated on the basis of the amount of H2O2 reduced by Hb during the reaction, using μg/ml and U/mg.
# To evaluate the extent of peroxidase function facilitation by HTPEB (1 μM) and KDS12025 (1 μM) in HRP (0.2 U/ml) and Hb (10 μg/ml), we used the ROS-Glo assay over 30 and 60 min. The fold change was calculated by dividing the delta values during the 30-min reaction for the vehicle over drug conditions.
# [2] = Solubility in aqueous solutions (statement); type: physicochemical
# [3] = PAMPA BBB permeability; type: in vitro ADME; conditions: for Papp at 4 h, 50 μM: PAMPA, pH 7.4, 50 μM
# Description: A parallel artificial membrane permeability assay (PAMPA)^70 was performed to validate the blood-brain barrier permeability of KDS12025. The procedure began by preparing a donor solution of the compound in a pH 7.4 donor buffer. This solution was added to the wells of a deep well plate, followed by the addition of a high-sensitivity UV plate filled with donor buffer to serve as the blank sample. An initial sample for the UV plate was taken to establish a baseline reading. The PAMPA sandwich was then assembled by adding the donor plate mixture to the donor plate well, followed by placing a BBB-lipid coated membrane on top and an acceptor plate filled with acceptor buffer. This setup was incubated at 25 °C for a specific duration to allow diffusion. Post-incubation, a sample from the acceptor plate was taken, and the UV absorbance was measured to determine the permeated amount of the test compound. The permeability was then calculated using the PAMPA explorer program, considering the initial donor concentration and the acceptor's concentration after incubation.
# [4] = test system: CAT; test: Bubbling liberation (oxygen release) with CAT; type: biochemical; conditions: CAT + H2O2, Fig. 2g
# Description: The effects of bubbling with DMSO, HTPEB, and KDS12025 were evaluated. To measure the degree of bubbling quantitatively, the reactions were conducted in sealed tubes connected to an inverted cylinder submerged in a water bath to record the time and volume of the bubbles produced. […] Vehicle, HTPEB, and KDS12025 were added to assess their effects. A similar procedure was followed for Hb.
# [5] = DPPH radical scavenging assay; conditions: Fig. S1e
# Description: In a 96-well microplate, samples (20 μl) at concentrations ranging from 0.1 to 100 μM were mixed with 80 μL of 50 mM sodium phosphate buffer (pH 7.2) and 100 μL of DPPH (1,1-diphenyl-2-picrylhydrazyl) solution (250 μM in methanol) and incubated for 30-min in the dark. Each sample was quantified using a microplate fluorescence reader (SpectraMax iD5, Molecular Devices) at absorbance (517 nm). Edaravone was used as a positive control. The radical scavenging activity was estimated using the following equation: sample absorbance / control absorbance ×100. The dose-response curve, EC50 for the DPPH, was calculated and determined by fitting data with GraphPad Prism software. The fitting method had no special handling of outliers.
# [6] = target: T1, HRP; test: H2O2 assay with HRP (HRP-EC50); type: biochemical, horseradish; conditions: Tables S2, S3; read-out: HRP-EC50
# Description: Hb (Sigma‒Aldrich, H7379), H2O2 (Sigma‒Aldrich, H1009), and Amplex Red reagents (Invitrogen, A12222) were obtained for the study. A 4 μM H2O2 solution was prepared in 50 mM sodium phosphate buffer (pH 7.2). Then, 49 μl of this mixture was mixed with 1 μl of the test compound in DMSO or distilled water. The mixture was combined with an assay mixture of Amplex Red reagent (20 mM stock to 0.1 mM) and HRP (200 U/ml stock to 0.2 U/ml) and added to the wells at 50 μl/well. After a 60-min incubation at 37 °C, resorufin production was quantified via a microplate fluorescence reader (SpectraMax iD5, Molecular Devices) at ex/em = 535/580 nm. The H2O2-decomposing activity was estimated via the following equation: (sample fluorescence-blank fluorescence)/(control […]-blank fluorescence) × 100. For the ROS-Glo assay, the H2O2 substrate solution and ROS-Glo detection solution were prepared according to the manufacturer’s instructions. 10 μM H2O2 and drugs were prepared as in the Amplex Red assay, with HRP, Hb, CAT, or GPx added as needed. The mixture was added to the wells at 100 μl/well and incubated for 60 min at 37 °C. H2O2 substrate solution was added, and the mixture was incubated at room temperature for 30 min. After the H2O2 substrate solution was added and incubated at room temperature for 30 min, the ROS-Glo detection solution was added, and the mixture was incubated for 15 min. Luminescence was measured via iD5 microplate readers. The H2O2-decomposing activity was estimated via the following equation: (sample luminescence-blank luminescence)/(control luminescence-blank luminescence) × 100. The U/ml was calculated on the basis of the amount of H2O2 reduced by Hb during the reaction, using μg/ml and U/mg.
# [7] = read-out: BCS code: permeability classification
Compound,"EC50 ([1]; Fig. 1e, read-out: EC50, ROS-Glo assay with replenishing HRP)","tau value, reaction time-response of HRP with HTPEB ([1]; Fig. S1b)",fold change in H2O2 decomposition by HRP [1],solubility in water / aqueous solutions [2],"BCS code: CNS +/- classification ([3]; 50 μM, 4 h)","Pe (PAMPA BBB permeability) ([3]; 50 μM, 4 h, U.V)","Papp at 4 h, 50 μM [3, 7]",bubbles per 1 × 1 mm^2 area [4],IC50 [5],EC50 [6],"Papp at 4 h, 50 μM ([3]; U.V, read-out: Pe (PAMPA BBB permeability))"
"O=C(O)c1cc(NCCc2ccc(C(F)(F)F)cc2)ccc1O [HTPEB, 2-hydroxy-5-[2-(4-trifluoromethyl-phenyl)-ethylamino]-benzoic acid, reference compound]",2500 nM,8.57 min,3.769±0.7911,poor,- (< 10),3.56 10^-6cm/sec,> 0.4 ×10⁻⁶ cm/s,84.5±9.957,19200 nM,1520 nM,
"CN(C)c1ccc(NCCc2ccc(C(F)(F)F)cc2)cc1.Cl [KDS12008, N^1,N^1-dimethyl-N^4-(4-(trifluoromethyl)phenethyl)benzene-1,4-diamine hydrochloride salt]",,,,,,,,,,795 nM,
"CNc1ccc(NCCc2ccc(C(F)(F)F)cc2)cc1.Cl [KDS12017, N^1-methyl-N^4-(4-(trifluoromethyl)phenethyl)benzene-1,4-diamine hydrochloride salt]",,,,,,,,,,828 nM,
"CNc1ccc(NCCc2ccccc2OC)cc1.Cl [KDS12025, N^1-(2-methoxyphenethyl)-N^4-methylbenzene-1,4-diamine hydrochloride salt]",,,5.642±0.5747,highly water soluble,+ (> 10),,> 0.4 ×10⁻⁶ cm/s,92.0±6.622,155000 nM,529 nM,67.4 ×10⁻⁶ cm/s
